Measured values reported in patent EP3991729A1, “USE OF AMLEXANOX IN PREPARING ANTI-HEPATITIS VIRUS DRUG” (Marine Biomedical Research Institute Of Qingdao Co., Ltd., priority 2019, dated 2020).

Tests used:
[1] = tested on: hepatitis B virus; experiment: HBV genomic DNA replication in HepG2 cells transfected with linear HBV genomic DNA, quantitative PCR of circular HBV DNA; assay type: cell-based, hepatitis B virus (genotype B); settings: 10µM, HepG2, 96 hours, Figure 1
Description: After 96 hours, cells were divided into two groups, with genomic DNA extracted from one. From the other, free DNA was extracted using HIRT extraction, and linear DNA was removed using DNA exonuclease (NEB). Circular HBV DNA and genomic GAPDH were detected by quantitative PCR. The highest value of circular HBV DNA was defined as 100% (n=5).

[2] = tested on: B and T cells; experiment: Immune cells in blood of HBV-infected mice, flow cytometry; settings: 4, 8, 16 mg/kg/time, twice a day, oral gavage, day 9, Figure 19
Description: (§1) Six-week-old male C57 mice were rapidly injected with 10µg/mouse of viral genomic DNA (genotype A) by tail vein injection in a short period. Viral infection was established using a venous hypertension model and randomly divided into groups. […] At the same time, a blank control was set up, and oral administration in uninfected mice was equivalent to the model group.
On day 9, mice were sacrificed to collect blood stained with flow antibody after fission red. All cells were treated with anti-FcγRIII/ II (purchased from BD Biosciences) in PBS for 30 min. CD3e-FITC (purchased from BD Biosciences). CD4-PE, CD8a-APC-Vio770, and CD34-FITC (GE). CD19-APC, CD11b-PE-Cyanine7, and CD117-efflor 450 (purchased from eBioscience). After staining, the samples were suspended using 500µL PBS and analyzed by BD Aria III flow cytometer.

[3] = tested on: hepatitis B virus; experiment: HBV replication in HepAD38 cell model, qPCR of cccDNA, core particle DNA and supernatant HBV DNA; assay type: cell-based; settings: 20µM, 10µM and 5µM, HepAD38, 96 and 144 hours, Figures 10, 11, 12
Description: 2×10^5 HepAD38 cells that were stably expressing HBV with good growth status were seeded in collagen pretreated 6-well plates, and the corresponding concentrations of the test substances were added: final concentration of 1µM for entecavir (ETV) and a final concentration of 20µM, 10µM, and 5µM for amlexanox (AML), respectively. Two groups of controls were also set up, one with solvent only (DMF) and one with antibiotic only (tetracycline). Three replicate wells were set for all groups. After 96 hours and 144 hours of test article addition, 500 µL of cell culture supernatant was used to extract DNA from the supernatant, and the amount of HBV DNA in the supernatant was detected by qPCR. After 144h, cells were harvested and lysed in Lysis buffer A (50 mM Tris-HCl, pH 7.4, 1 mM EDTA, and 1% NP-40). The supernatant and pellet of the lysates were collected, respectively, from which DNA was extracted and quantified by quantitative PCR. Linear DNA was removed by DNA exonuclease (NEB) after DNA extraction from the cell lysate pellet, so only circular DNA (cccDNA) was examined (Figure 10). Viral DNA in the supernatant of cell lysates was defined as core particle DNA (Figure 11).

[4] = tested on: hepatitis B virus; experiment: HBV core antigen (HBeAg) in culture supernatant of HepAD38 cells, ELISA; assay type: cell-based; settings: 16µM to 2µM, HepAD38, 24h to 144h, Figure 14
Description: A solvent-only control group (DMF) was also set up. Three replicate wells were set up for all experiments. 500µL of culture supernatant was taken at 24h, 48h, 72h, 96h, and 144h after adding the test article for ELISA to detect HBV core antigen (HBeAg) concentration.

[5] = tested on: hepatitis B virus; experiment: HBsAg in culture supernatant of HBV DNA-transfected HepG2 cells, ELISA; settings: 10µM, HepG2, 96h after transfection, Figure 2
Description: Hepatocyte HepG2 cells with good growth status were seeded in 6-well plates at 10^6 cells/well and, after being left overnight, 2µg of linear HBV viral genomic DNA (genotype B) was transfected into each well using lipofectamine 2000 to establish a viral infection cell model. […] An equal volume of DMSO (1/1000, v/v) was added to the control group. Forty-eight hours after transfection, cells from each well were passaged into one 6cm culture plate. After transfection, HBsAg levels in the culture supernatant were quantified by ELISA 96h.
Well-grown hepatocyte HepG2 cells 10^6 cells/well were seeded in 6-well plates, and after overnight, 2µg of linear HBV viral genomic DNA (genotype B) was transfected per well using Lipofectamine 2000. […] An equal volume of DMSO (1/1000, v/v) was added to the control group. Forty-eight hours after transfection, cells from each well were passaged into one 6cm culture plate. HBV surface antigen (HBsAg) in the culture medium was detected by ELISA 96h after transfection.

[6] = tested on: HepG2, HCT-116, Hela, A549, MCF7, MKN45, THP-1, Huh7, and 293 cells; experiment: Cytotoxicity test, MTT assay, summary over the nine kinds of cells; assay type: cell-based; settings: 72h
Description: […]. Various cells in the logarithmic growth phase were seeded in 96-well plates at 6,000 cells/well and cultured for 24h. […]. The dosage of DMSO in the solvent control group was based on the maximum dose of 0.1% used in the test group, with four duplicate wells for each concentration. Cells were treated with the drug for 72h and then added with 20µL 5 mg/mL MTT, cultured at 37°C for 4h, after added 100 µ L triple solution (10% SDS, 5% isobutanol, 12 mM hydrochloric acid), 96-well cell culture plate was placed in an incubator containing 5% CO2 at 37 ± 1°C overnight. OD value at 570nm was measured on a microplate reader.
The inhibition rate of tumor cell growth was calculated according to the following formula: Inhibition rate(%) = [(OD570controlwell−OD570dosewell)/OD570controlwell] × 100. [formula]

[7] = tested on: alanine aminotransferase (ALT); experiment: Mouse venous hypertension model (genotype A), serum alanine aminotransferase (ALT) activity, colorimetric kit; settings: 25-200 mg/day (converted adult dose), once a day oral gavage, Figure 16
Description: as §1
(§2) On days 1, 3, and 7 of administration, an appropriate amount of blood was collected from the tail vein of mice in each group. On day 9, the remaining peripheral blood was collected after the mice were sacrificed. All blood samples were centrifuged to obtain serum, divided into two portions. One was used to detect the concentration of HBsAg by ELISA, and the other was used to detect the enzyme activity of alanine aminotransferase (ALT) by alanine aminotransferase kit (colorimetric method) (Nanjing Jiancheng Bioengineering Institute).

[8] = tested on: hepatitis B virus; experiment: Mouse venous hypertension model (genotype A), serum HBsAg by ELISA, dose groups (Example 12); settings: dose higher than 50 mg/day (converted adult dose), once a day oral gavage, seven days of administration, Figure 15
Description: as §1, §2

[9] = tested on: hepatitis B virus; experiment: Mouse venous hypertension model (genotype B), HBV genomic DNA in liver by fluorescence quantitative PCR; assay type: in vivo, Wild-type mice (C57/B6); settings: 50 mg/kg/day oral gavage, 11th day after infection, Figure 5
From the text: . On the 11th day after infection, the mice were sacrificed, the livers of the mice were isolated, DpnI was transferred to exclude source DNA, and HBV genomic DNA in the livers of the mice was detected by fluorescence quantitative PCR (n=5).

[10] = tested on: hepatitis B virus; experiment: HBV transgenic mouse model, serum HBsAg by ELISA; assay type: in vivo, male C57BL/6-HBV transgenic mice; settings: 48 mg/kg intragastric once daily for 35 days, Figure 18
Description: Ten male C57BL/6-HBV transgenic mice (provided by Beijing Vitalstar Biotechnology Co., Ltd.) aged six weeks were randomly divided into two groups (control group, n=5; administration group, n=5).
Route of administration: Intragastric administration, 1mL sterile syringe was used for administration.
Dosing frequency: The drug was administered once daily for 35 consecutive days, with free access to food and water.
Dose-volume: 10 mL/kg. The dose-volume for each animal was determined based on the most recent body weight before administration.
The serum was separated and diluted 5000 times with PBS, respectively. The ELISA kit detected the concentration of HBV surface antigen (HBsAg). The OD value at 450 nm was measured on a microplate reader.
The inhibition rate was calculated according to the following formula: Inhibition rate = [(OD450controlwell−OD450dosewell)/OD450 control; well] × 100% [formula]

[11] = tested on: subtype A hepatitis B virus; experiment: Mouse venous hypertension model (genotype A), HBeAg in peripheral blood by ELISA; assay type: in vivo, Wild-type mice (C57/B6); settings: twice a day, oral gavage, 9th day after infection, Figure 8
Description: On the 9th day after infection, about 100µl of blood was harvested from each animal, serum was separated, and the concentration of HBeAg in peripheral blood was measured by ELISA.

[12] = tested on: hepatitis B virus; experiment: Mouse venous hypertension model (genotype B), core antigen (HBeAg) in peripheral blood by ELISA; assay type: in vivo, Wild-type mice (C57/B6); settings: 50 mg/kg/day oral gavage, 9th day after infection, Figure 4
Description: . On the 9th day after infection, about 100µl/mouse of blood was harvested from the tail to separate serum. The concentration of hepatitis B virus core antigen (HBeAg) in peripheral blood was measured by ELISA. The OD value at 450nm was measured on a microplate reader.

CC(C)c1ccc2oc3nc(N)c(C(=O)O)cc3c(=O)c2c1 [amlexanox, Amlexanox]
Circular HBV DNA (hepatitis B virus genomic DNA replication) [1]: inhibits hepatitis B virus genomic DNA replication in cell models with effects comparable to existing clinical drugs | effect on immune cells (B and T cells) in blood [2]: had an inhibitory effect on both B and T cells, and the inhibitory effect was dose-dependent | HBV DNA (cccDNA, core particle DNA, viral DNA in cell culture supernatant) [3]: significantly inhibits hepatitis B virus replication in the HepAD38 cell model | HBV core antigen (HBeAg) concentration in culture supernatant [4]: significantly reduce HBsAg level and core antigen level | HBsAg levels in the culture supernatant [5]: reduces HBsAg levels in cell models, and its effect is superior to that of existing clinical drugs | cytotoxicity ([6]; nine kinds of cells, below the concentration of 50 µM): no obvious cytotoxicity | cytotoxicity ([6]; remaining five cells (other than MKN45, HCT-116, MCF7, Huh7), 100 µM): no significant cytotoxicity | enzyme activity of alanine aminotransferase (ALT) in serum [7]: can effectively reduce alanine aminotransferase activity | concentration of HBsAg in serum [8]: significantly reduced surface antigen (HBsAg) levels | HBV genomic DNA in the livers of the mice [9]: can significantly inhibit the load of viral DNA, and its effect is not lower than that of clinically used nucleotide-like drugs lamivudine and entecavir | HBV surface antigen (HBsAg) in serum [10]: could inhibit HBsAg level in transgenic mice | concentration of HBeAg in peripheral blood ([11]; 16 mg/kg/time): still effective | concentration of HBeAg in peripheral blood, dose-response relationship ([11]; 4, 8 and 16 mg/kg/time): its ability to inhibit hepatitis B virus is enhanced in a mouse model of venous hypertension | concentration of hepatitis B virus core antigen (HBeAg) in peripheral blood [12]: reduced hepatitis B virus core antigen levels in a mouse model of venous hypertension, and its effect was comparable to that of lamivudine
